Source: paper PMC10146204, “Inhibition of Acetylcholinesterase by Novel Lupinine Derivatives” (Molecules, 2023)
“Also recorded” adds a separate entry of the source.

Target: T1, AChE (Homo sapiens, UniProt P22303)
T1 construct: purchased Sigma-Aldrich Chemical Co
T1 sequence (P22303 32-614): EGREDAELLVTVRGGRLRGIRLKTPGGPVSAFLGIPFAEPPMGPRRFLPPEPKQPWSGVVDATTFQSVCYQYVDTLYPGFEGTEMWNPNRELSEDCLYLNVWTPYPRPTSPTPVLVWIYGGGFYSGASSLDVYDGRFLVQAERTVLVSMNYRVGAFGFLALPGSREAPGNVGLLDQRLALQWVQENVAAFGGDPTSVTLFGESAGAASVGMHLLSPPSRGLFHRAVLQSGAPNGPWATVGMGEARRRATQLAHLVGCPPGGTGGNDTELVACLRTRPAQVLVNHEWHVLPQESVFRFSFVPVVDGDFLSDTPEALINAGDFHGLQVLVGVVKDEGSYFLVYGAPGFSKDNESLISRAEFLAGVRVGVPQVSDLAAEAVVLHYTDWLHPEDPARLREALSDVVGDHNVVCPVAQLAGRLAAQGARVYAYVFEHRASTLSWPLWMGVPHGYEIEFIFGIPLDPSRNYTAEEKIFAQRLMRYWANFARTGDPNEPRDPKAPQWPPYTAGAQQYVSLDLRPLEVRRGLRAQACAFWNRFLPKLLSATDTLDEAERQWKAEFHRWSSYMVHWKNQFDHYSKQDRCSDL
Assay: biochemical
Format: biochemical
Conditions: not given
From the text: The kit is based on an improved Ellman method, whereby thiocholine produced from AChE activity forms a yellow color with 5,5′-dithiobis(2-nitrobenzoic acid), and the intensity the color (412 nm) is proportional to the enzyme activity.
With `O=C(CCCCl)OC[C@@H]1CCCN2CCCC[C@H]12` [Compound 22] the IC50 was 39.5 ± 7.2 µM. Compound `O=C(Nc1ccc(Cl)c(Cl)c1)OC[C@@H]1CCCN2CCCC[C@H]12` [Compound 41] has an IC50 of 99.4 ± 12.3 µM.

Same assay, conditions: Experimentally determined class, Active or NA
For `O=C(CCCCl)OC[C@@H]1CCCN2CCCC[C@H]12` [Compound 22], the “Observed class for AChE inhibitory activity” value was “Active”. With `CC1(C)CC(=O)c2c(C(=O)OC[C@@H]3CCCN4CCCC[C@H]34)coc2C1` [Compound 25] the “Observed class for AChE inhibitory activity” value was “Active”.

Same assay, conditions: N.A.: no activity was observed at the highest concentration tested (150 µM); 5–7 tested concentrations; read-out: AChE inhibitory activity IC50
With `Nc1nc(SCc2cn(C[C@@H]3CCCN4CCCC[C@H]34)nn2)n[nH]1` [Compound 5, 3-((1-(((1S,9aR)-Octahydro-1H-quinolizine-1-yl)methyl)-1H-1,2,3-triazole-4-yl)methylthio)-1H-1,2,4-triazole-5-amine] the IC50 was 101 ± 23.9 µM. `CCOc1cc(C=O)ccc1OCc1cn(C[C@@H]2CCCN3CCCC[C@H]23)nn1` [Compound 7, 3-Ethoxy-4-((1-(((1S,9aR)-octahydro-1H-quinolizine-1-yl)methyl)-1H-1,2,3-triazole-4-yl)methoxy)benzaldehyde] showed an IC50 of 73.4 ± 16.7 µM. With `COc1cccc(-c2cn(C[C@@H]3CCCN4CCCC[C@H]34)nn2)c1` [Compound 13] the IC50 was 51.8 ± 9.2 µM. In the case of `COc1cc(-c2cn(C[C@@H]3CCCN4CCCC[C@H]34)nn2)ccc1OCc1ccccc1` [Compound 15, (1S,9aR)-1-((4-(4-(benzyloxy)-3-methoxyphenyl)-1H-1,2,3-triazol-1-yl)methyl)octahydro-2H-quinolizine], the IC50 is reported as 7.2 µM. In the case of `CCc1cc(C(=O)OCc2cn(C[C@@H]3CCCN4CCCC[C@H]34)nn2)c(O)c(C(C)(C)C)c1` [Compound 16], the IC50 is reported as 141 ± 15.3 µM. In the case of `O=Cc1ccc(OCc2cn(C[C@@H]3CCCN4CCCC[C@H]34)nn2)cc1` [Compound 17], the IC50 is reported as 68.1 ± 2.2 µM. With `CC1(C)CC(=O)c2c(C(=O)OC[C@@H]3CCCN4CCCC[C@H]34)coc2C1` [Compound 25] the IC50 was 24.4 ± 3.4 µM. With `COc1ccccc1/C=C/C(=O)OC[C@@H]1CCCN2CCCC[C@H]12` [Compound 43] the IC50 was 89.6 ± 7.7 µM. In the case of `O=C1CC(C(=O)OC[C@@H]2CCCN3CCCC[C@H]23)C2(CCCCC2)O1` (some centres unmarked) [Compound 44], the IC50 is reported as 68.9 ± 5.8 µM. `COc1cccc(/C=C/C(=O)OC[C@@H]2CCCN3CCCC[C@H]23)c1OC` [Compound 49] gave an IC50 of 111 ± 12.5 µM. `Cc1cc(C)c(C(=O)OC[C@@H]2CCCN3CCCC[C@H]23)cc1C` [Compound 64] gave an IC50 of 74.1 ± 6.8 µM.

Same assay, conditions: double-reciprocal Lineweaver–Burk plot
For `COc1cc(-c2cn(C[C@@H]3CCCN4CCCC[C@H]34)nn2)ccc1OCc1ccccc1` [Compound 15, (1S,9aR)-1-((4-(4-(benzyloxy)-3-methoxyphenyl)-1H-1,2,3-triazol-1-yl)methyl)octahydro-2H-quinolizine], the “Mechanism of AChE inhibition (Lineweaver–Burk plot)” value was “mixed type of inhibition; also recorded: mixed-type mechanism”.

System: human THP-1 monocytic cells
Assay: Cytotoxicity assay (CellTiter-Glo Luminescent Cell Viability Assay)
Format: cell-based
Conditions: THP-1 cells, concentrations up to 50 μM, 24 h
Experimental: The cytotoxicity of the synthesized compounds was analyzed using a CellTiter-Glo Luminescent Cell Viability Assay Kit (Promega, Madison, WI, USA) according to the manufacturer’s protocol. Human THP-1 monocytic cells obtained from ATCC (Manassas, VA, USA) were cultured in RPMI 1640 medium (Mediatech Inc., Herndon, VA, USA) supplemented with 10% (v/v) FBS, 100 μg/mL streptomycin, and 100 U/mL penicillin. For the cytotoxicity assay, the cells were cultured at a density of 10^4 cells/well with different concentrations of the test compounds added ([…], 12.5, 25, 50 μM; final concentration of DMSO was 1%) for 24 h at 37 °C and 5% CO2. Following treatment, substrate was added to the cells, and the samples were analyzed with a Fluoroscan Ascent FL microplate reader.
In the case of “[(1R,9aR)-octahydro-2H-quinolizin-1-yl]methane [Lupinine]”, the Cytotoxicity is reported as “no cytotoxicity”.

Target: T1, AChE
Assay: not given
Conditions: previously reported AChE inhibitors with a 4-benzyloxyphenyl moiety; ref [36],[37],[38]; read-out: AChE inhibitory activity IC50 of previously reported inhibitors; cited from earlier work
In the case of `Cn1c(/C=N/Nc2ccc(OCc3ccccc3)cc2)nc2ccccc21` [Compound A, (E)-2-((2-(4-(benzyloxy)phenyl)hydrazineylidene)methyl)-1-methylbenzimidazole], the IC50 is listed as 11.8 µM. For `CCc1nnc(/N=C2\NC(=O)/C(=C\c3ccc(OCc4ccccc4)cc3)S2)s1` [Compound B, (E)-5-((E)-4-(benzyloxy)benzylidene)-2-((5-ethyl-1,3,4-thiadiazol-2-yl)imino)thiazolidin-4-one], the IC50 is listed as 1.2 µM. For `COc1cc(/C=C/C(=O)NCCNc2cc(C)nc3ccccc23)ccc1OCc1ccccc1` [Compound C, (E)-3-(4-(benzyloxy)-3-methoxyphenyl)-N-(2-((2-methylquinolin-4-yl)amino)ethyl)acrylamide], the IC50 is listed as 0.6 µM.
